Laboratory results taken from patent US20230132823A1, “BI-FUNCTIONAL COMPOUNDS AND METHODS FOR TARGETED UBIQUITINATION OF ANDROGEN RECEPTOR” (MONTELINO THERAPEUTICS, INC., priority 2020, published 2023).
Read-outs that look alike come from different tables or passages of the source. Where a SMILES comes first, the peptide text is derived from it. [ ]: non-standard residue; d: D form. The star is where a group is joined. ξ: configuration not given here. X1 = O=C(COc1c(-c2csc(N3CCOCC3)n2)ccc(F)c1F)NCCCCCCN*; Dip = N[C@H](C(=O)O)C(c1ccccc1)c1ccccc1; Chg = N[C@H](C(=O)O)C1CCCCC1; NMeA = CN[C@@H](C)C(=O)O; ξP = O=C(O)C1CCCN1

Columns and labels:
[1] = Body weight of tumor-bearing mice during treatment; format: in vivo
Procedure: The in vivo effects of the Compound of Example 16 are assessed in mice using enzalutamide-resistant CaP xenografts. First, 22Rv1-Enz^R tumor xenografts are established in nu/nu mice. Upon CaP xenograft formation (average diameter of 3 mm), mice are randomized into controls or treatment. Control mice are treated with 100 μl vehicle containing 10 mg/ml enzalutamide (n=5). The treatment group is injected with 100 μl vehicle containing 2.5 mg/ml Compound of Example 16 and 10 mg/ml enzalutamide daily directly into tumors (n=5) and tumor volumes were followed. […] Tumors are harvested and analyzed at the end of the study period.
Enzalutamide-resistant CaP tumor xenografts are established in twelve mice and three each are assigned to the following four groups: control IP (vehicle), control oral (vehicle), 8.3 mg/kg IP, and 8.3 mg/kg oral. Because these cells are resistant to enzalutamide, all animals are administered enzalutamide.

AR-FL = molecular target: T1, AR-FL (Homo sapiens, UniProt P10275, DUP590-628/H875Y); experiment: Immunoblot analysis of AR-FL protein in CaP cells (Experimental Example 3); format: cell-based; set-up: decreased AR-V7 and AR-FL protein expression levels in 22Rv1 cells; endogenous in cells; host or cells: 22Rv1 (also VCaP, LNCaP and SAT-resistant sublines)
T1 sequence (P10275 with tags, fused parts or gaps DUP590-628/H875Y): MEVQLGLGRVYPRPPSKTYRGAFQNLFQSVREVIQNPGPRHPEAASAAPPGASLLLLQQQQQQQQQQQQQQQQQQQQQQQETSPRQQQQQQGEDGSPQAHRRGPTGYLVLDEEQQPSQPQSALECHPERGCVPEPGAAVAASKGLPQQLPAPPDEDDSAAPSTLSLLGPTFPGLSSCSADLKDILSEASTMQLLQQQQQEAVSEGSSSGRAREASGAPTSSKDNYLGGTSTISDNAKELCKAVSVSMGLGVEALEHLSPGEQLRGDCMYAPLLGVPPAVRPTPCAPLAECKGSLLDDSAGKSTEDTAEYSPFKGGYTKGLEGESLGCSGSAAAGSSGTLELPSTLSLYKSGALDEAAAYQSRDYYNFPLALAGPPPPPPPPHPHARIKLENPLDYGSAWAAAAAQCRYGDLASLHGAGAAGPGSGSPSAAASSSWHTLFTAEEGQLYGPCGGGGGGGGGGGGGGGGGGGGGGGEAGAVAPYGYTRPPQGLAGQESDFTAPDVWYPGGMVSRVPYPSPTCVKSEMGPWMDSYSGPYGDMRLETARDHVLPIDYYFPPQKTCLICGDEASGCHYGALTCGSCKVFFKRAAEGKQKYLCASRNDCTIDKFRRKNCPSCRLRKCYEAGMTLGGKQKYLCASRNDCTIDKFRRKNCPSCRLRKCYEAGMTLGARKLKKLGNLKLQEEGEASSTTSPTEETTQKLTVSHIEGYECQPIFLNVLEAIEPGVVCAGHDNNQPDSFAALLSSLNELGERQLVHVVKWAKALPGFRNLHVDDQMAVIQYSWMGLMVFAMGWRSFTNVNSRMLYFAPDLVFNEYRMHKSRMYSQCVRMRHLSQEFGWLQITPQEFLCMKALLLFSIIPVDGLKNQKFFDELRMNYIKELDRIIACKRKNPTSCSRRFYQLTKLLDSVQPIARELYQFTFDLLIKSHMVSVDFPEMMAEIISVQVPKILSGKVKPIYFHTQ
Procedure: Cell Culture. Human CaP cell lines, LNCaP, 22Rv1, VCaP, PC3, and DU145 are obtained from the American Type Culture Collection (ATCC) and maintained in the standard culture media: RPMI-1640 supplemented with 10% fetal bovine serum (FBS). LNCaP, 22Rv1, and VCaP are androgen-responsive cell lines, while PC3 and DU145 are not. To establish SAT resistant CaP cell lines, LNCaP, 22Rv1, and VCaP are treated continuously with 10-50 μM abiraterone, apalutamide, darolutamide, or enzalutamide. After 3-6 months, stable cell lines are established and designated as LNCaP-Abi^R, LNCaP-Apa^R, LNCaP-Daro^R, LNCaP-Enz^R, VCaP-Abi^R, VCaP-Apa^R, VCaP-Daro^R, VCaP-Enz^R, 22Rv1-Abi^R, 22Rv1-Apa^R, 22Rv1-Daro^R and 22Rv1-Enz^R. Unless otherwise specified, the standard culture media for these SAT-resistant cell lines included 10 μM of their respective SAT. For the proteasome inhibitor study, the inhibitors MG132 and Epoxomicin are used. The E3 ligase inhibitors Heclin, Nutlin 3a, Thalidomide, and VH298 are used. Cell lines obtained from ATCC are confirmed by checking their morphology using optical microscopy, establishing baselines for cell proliferation, verifying species of origin using isoenzymology, and characterizing the cell's DNA fingerprint using short tandem repeat (STR) profiling. Mycoplasma contamination is also assessed using a PCR based detection system.
Immunoblot Analysis. CaP cells are collected and lysed with the lysis buffer (20 mM Tris-HCl (pH 7.5), 150 mM NaCl, 1 mM Na2EDTA, 1 mM EGTA, 1% Triton, 2.5 mM sodium pyrophosphate, 1 mM beta-glycerophosphate, 1 mM Na3VO4, and 1 μg/ml leupeptin) containing 1 mM phenylmethylsulfonyl fluoride (PMSF). Cell lysates are then centrifuged and protein in the supernatant is quantified. After separating 25-50 μg of protein using SDS-PAGE, samples are incubated with AR-V7, GR, PR, ERα, AR-FL, ubiquitin, or β-actin antibodies. For AR-V7, AR-FL, PR, GR, and ERα immunoblots, primary antibody is diluted 1:1000 in 5% skim milk. For the β-actin immunoblot, 1:10000 diluted primary antibody is used. All membranes are incubated overnight at 4° C. Following the incubation with appropriate secondary antibody, immunoblots are analyzed using SuperSignal West Femto Maximum Sensitivity Substrate (ThermoFisher).

22Rv1 = 22Rv1 cell proliferation assay (Experimental Example 1, cell count); format: cell-based; settings: Homo sapiens, 22Rv1, read-out: 22Rv1 cell count decrease at 10 μM for 48 hours; 10 μM (method: four days); read-out: 22Rv1 cell count decrease at 10 μM
Summary of the method: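 Human prostate cancer 22Rv1 cells, reported to express high levels of AR-V7, were grown in RPMI-1640 containing 10% fetal bovine serum. Test compounds were first dissolved in DMSO as 50 mM stock solutions and then diluted to the required concentrations. Proliferation was assessed as the percentage decrease in cell count.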

Compound | change in weight following treatment ([1]; 8.3 mg/kg systemic dosing, four weeks) | weight of the mice during treatment ([1]; intratumoral, 22Rv1-Enz^R xenograft, 5 weeks) | DC50 (AR-FL; 22Rv1, 24 hours, immunoblot, read-out: DC50, concentration at which 50% of AR-FL degraded in 24 hours) [µM] | concentration from which AR-FL protein expression is decreased (immunoblot) (AR-FL; 22Rv1 cells, 24 hours, 0, 0.01, 0.1, 1 and 10 μM tested) [µM] | AR-FL protein expression level in parental and SAT-resistant 22Rv1, VCaP and LNCaP cells (AR-FL; immunoblot) | inhibition at 10 µM (22Rv1) [%] | changes in animal body mass ([1]; 22Rv1-Enz^R tumors, 8.3 mg/kg and 0.83 mg/kg, 7 weeks) | DC50 (AR-FL; 24 hours, immunoblot, read-out: DC50, concentration at which 50% of AR-FL is degraded in 24 hours) [µM]
Cc1ncsc1-c1ccc([C@H](C)NC(=O)[C@@H]2C[C@@H](O)CN2C(=O)[C@@H](NC(=O)CCCCNC(=O)COc2c(-c3csc(N4CCOCC4)n3)ccc(F)c2F)C(C)(C)C)cc1 [Example 16, (2S,4R)-1-((S)-2-(5-(2-(2,3-difluoro-6-(2-morpholinothiazol-4-yl)phenoxy)acetamido)pentanamido)-3,3-dimethylbutanoyl)-4-hydroxy-N-((S)-1-(4-(4-methylthiazol-5-yl)phenyl)ethyl)pyrrolidine-2-carboxamide] | no significant change in weight | did not significantly change | 2 | 1 | decreases the protein expression levels | < 50 |  | 
CN[C@@H](C)C(=O)N[C@H](C(=O)N1CCCC1C(=O)N[C@H](C(=O)NCCCCCCNC(=O)COc1c(-c2csc(N3CCOCC3)n2)ccc(F)c1F)C(c1ccccc1)c1ccccc1)C1CCCCC1 (stereo partly drawn) [Example 26, (S)-1-((S)-2-cyclohexyl-2-((S)-2-(methylamino)propanamido)acctyl)-N-((S)-1-((6-(2-(2,3-difluoro-6-(2-morpholinothiazol-4-yl)phenoxy)acetamido)hexyl)amino)-1-oxo-3,3-diphenylpropan-2-yl)pyrrolidine-2-carboxamide] (H-[NMeA][Chg][ξP][Dip]-X1) |  |  |  |  |  | > 50 | No significant changes | < 0.5
